Experimental data published in BindingDB's records for doi:10.1021/acs.jmedchem.8b01153 (2019).

Columns and labels:
[1] = biological target: T1, Induced myeloid leukemia cell differentiation protein Mcl-1 (Homo sapiens, UniProt Q07820); assay: Binding affinity to MCl-1 (unknown origin) assessed as dissociation rate constant for state two
[2] = biological target: T1, Induced myeloid leukemia cell differentiation protein Mcl-1; assay: Binding affinity to MCl-1 (unknown origin) assessed as dissociation rate constant for state one

T1 sequence (Q07820 whole entry): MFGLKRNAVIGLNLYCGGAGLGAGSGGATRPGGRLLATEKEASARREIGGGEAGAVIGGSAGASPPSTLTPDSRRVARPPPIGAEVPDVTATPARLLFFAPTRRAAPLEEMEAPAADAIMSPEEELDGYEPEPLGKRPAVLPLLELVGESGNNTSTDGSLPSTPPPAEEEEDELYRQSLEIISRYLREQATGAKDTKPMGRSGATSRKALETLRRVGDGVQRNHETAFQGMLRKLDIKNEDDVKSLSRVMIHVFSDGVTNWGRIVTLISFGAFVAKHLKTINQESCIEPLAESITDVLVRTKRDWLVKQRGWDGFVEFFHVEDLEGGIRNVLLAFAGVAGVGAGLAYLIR

Row | koff [1] [s⁻¹] | koff [2] [s⁻¹] | SMILES
1 | 0.018 | 0.14 | Cc1c(-c2cccc3c(CCCOc4cccc5ccccc45)c(C(=O)O)[nH]c23)c(COc2ccc(B(O)O)c(C=O)c2)nn1C [7-(3-((4-Borono-3-formylphenoxy)methyl)-1,5-dimethyl-1Hpyrazol-4-yl)-3-(3-(naphthalen-1-yloxy)propyl)-1H-indole-2-carboxylic acid, 5]
2 | 0.01 | 0.13 | Cc1c(-c2cccc3c(CCCOc4cccc5ccccc45)c(C(=O)O)n(C)c23)c(COc2ccc(B(O)O)c(C=O)c2)nn1C [7-(3-((4-Borono-3-formylphenoxy)methyl)-1,5-dimethyl-1Hpyrazol-4-yl)-1-methyl-3-(3-(naphthalen-1-yloxy)propyl)-1H-indole-2-carboxylic acid, 11]
